Results on 26 molecules are retold here after US6545053B1, “Tricyclic compounds and drug compositions containing same” (Asahi Kasei Kogyo Kabushiki Kaisha, priority 1996, dated 2003).

For the test, the target named is T1, human β3 (Homo sapiens, UniProt P13945).
T1 construct: And then full length of human β3 gene was cloned using this fragment as a probe; expressed in transfected cells; host or cells: CHO cells (Chinese hamster ovary), pcDNA3 vector
As to the kind of experiment: Human β3-agonist activity (cAMP in CHO cells transfected with human β3 gene). The format is cell-based. Conditions: for Emax: CHO, read-out: Intrinsic activity (%). As for the experimental part: Human β3-agonist Activity
Human β3-agonist activity was examined using CHO cells (chinese hamster ovarian cells) to which pcDNA3 (in vitrogen) cells inserted human β3 gene was transfected. Human β3 fragment was obtained by PCR using human fat tissue cDNA (supplied from Clontech) with a β3 primer [Krief et al, J. Clin. Invest.
The cells were cultured in a HAM F-12 medium containing 10% of fetal bovine serum, 400 μg/ml of Geneticin (Gibco BRL). 100 U/ml penicillin and 100 μg/ml streptomycin. 5×10^5 cells were placed on a 6-well plate and cultured for 24 hours, after which the medium was changed to a HAM F-12 medium without serum and was kept for 2 hours. Each test compound was first dissolved in DMSO, and then diluted with a HAM F-12 medium containing 1 mM isobutylmethyl xanthine and 1 mM ascorbic acid. A 10-fold dilution in the range of 10^−5 to 10^−12 M was added into the cell.
After culturing for 30 minutes, culture medium was withdrawn, 0.5 ml of 1 N NaOH was added and was kept for 20 minutes. And then 0.5 ml of 1 N acetic acid was added with subsequent agitation and centrifugation. Finally the concentration of cAMP were analyzed using cAMP EIA KIT (Cayman). […] Isoprotelenol was purchased from Research Biochimicals International.

Where [1] appears, read: cAMP, CHO cells with human β3, read-out: ED50 (the source's name).

Where a name gives a salt, the structure may show the parent alone. Read-outs that look alike come from different tables or passages of the source.

T1 sequence (P13945 whole entry, the tested form may be a part): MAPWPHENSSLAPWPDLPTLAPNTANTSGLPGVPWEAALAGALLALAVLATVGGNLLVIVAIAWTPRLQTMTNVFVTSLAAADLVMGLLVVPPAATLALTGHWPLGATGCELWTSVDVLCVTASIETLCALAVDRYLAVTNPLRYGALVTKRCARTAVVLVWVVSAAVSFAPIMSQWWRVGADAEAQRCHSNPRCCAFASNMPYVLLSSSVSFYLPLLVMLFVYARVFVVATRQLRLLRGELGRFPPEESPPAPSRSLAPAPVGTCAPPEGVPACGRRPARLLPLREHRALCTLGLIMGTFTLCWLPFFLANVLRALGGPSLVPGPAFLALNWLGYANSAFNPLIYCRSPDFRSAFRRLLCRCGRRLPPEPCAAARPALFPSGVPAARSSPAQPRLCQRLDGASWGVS

For `CS(=O)(=O)Nc1cc(C(O)CNCCOc2ccc3c(c2)[nH]c2ccccc23)ccc1OCc1ccccc1` (racemic) [Example 1, (±)-N-[5-[2-[2-(9H-Carbazol-2-yloxy)ethylamino]-1-hydroxyethyl]-2-benzyloxyphenyl]methanesulfonamide Hydrochloride], the EC50 worked out at 0.34 µM and the Emax was found to be 80%.
Regarding `CS(=O)(=O)Nc1cc(C(O)CNCCOc2ccc3c(c2)[nH]c2ccccc23)ccc1F` (racemic) [Example 5, (±)-N-[5-[2-[2-(9H-Carbazol-2-yloxy)ethylamino]-1-hydroxyethyl]-2-fluorophenyl]methanesulfonamide Hydrochloride], the EC50 amounted to 0.066 µM and the Emax turned out to be 114%.
Consider `CS(=O)(=O)Nc1cc(C(O)CNCCOc2ccc3c(c2)[nH]c2ccccc23)ccc1Cl` (racemic) [Example 6, (±)-N-[5-[2-[2-(9H-Carbazol-2-yloxy)ethylamino]-1-hydroxyethyl]-2-chlorophenyl]methanesulfonamide Hydrochloride], for which the EC50 turned out to be 0.033 µM and the Emax came out at 119%.
Taken in the same sequence, the figures for `O=S(=O)(Cc1ccccc1)Nc1cccc(C(O)CNCCOc2ccc3c(c2)[nH]c2ccccc23)c1` (racemic) [Example 8, (±)-N-[3-[2-[2-(9H-Carbazol-2-yloxy)ethylamino]-1-hydroxyethyl]phenyl]phenylmethanesulfonamide Hydrochloride] were 0.72 µM and 47%.
On to `CC(=O)Nc1ccc2c(c1)Cc1cc(OCCNCC(O)c3cccc(NS(C)(=O)=O)c3)ccc1-2` (racemic) [Example 10, (±)-N-[3-[2-[2-(9H-7-Acetylaminofluoren-2-yloxy)ethylamino]-1-hydroxyethyl]phenyl]methanesulfonamide Hydrochloride], for which the Emax was determined as 47%. The EC50 under setting [1] was found to be 0.15 µM.
For `CC(COc1ccc2c(c1)[nH]c1ccccc12)NCC(O)c1cccc(NS(C)(=O)=O)c1` (racemic) [Example 11, (±)-N-[3-[2-[[1-(9H-Carbazol-2-yloxy)propan-2R-yl]amino]-1-hydroxyethyl]phenyl]methanesulfonamide Hydrochloride], the Emax is 95%. Further, the EC50 under setting [1] came out at 0.026 µM.
Turning to `CNS(=O)(=O)c1cccc(C(O)CNCCOc2ccc3c(c2)[nH]c2ccccc23)c1` (racemic) [Example 16, (±)-N-methyl-3-[2-[2-(9H-Carbazol-2-yloxy)ethylamino]-1-hydroxyethyl]benzenesulfonamide Hydrochloride], the EC50 was 0.03 µM and the Emax was found to be 99%.
Consider `O=CNc1cccc(C(O)CNCCOc2ccc3c(c2)[nH]c2ccccc23)c1` (racemic) [Example 17, (±)-N-[3-[2-[2-(9H-Carbazol-2-yloxy)ethylamino]-1-hydroxyethyl]phenyl]formamide Hydrochloride], for which the EC50 was 0.91 µM and the Emax was found to be 53%.
Turning to `O=[N+]([O-])c1cc(C(O)CNCCOc2ccc3c(c2)[nH]c2ccccc23)ccc1O` (racemic) [Example 18, (±)-2-[N-[2-(9H-Carbazol-2-yloxy)ethyl]amino]-1-(4-hydroxy-3-nitrophenyl)]ethanol Hydrochloride], the Emax was 90%. Moreover, the EC50 under setting [1] was 0.032 µM.
For `OC(CNCCOc1ccc2c(c1)[nH]c1ccccc12)c1ccccc1F` (racemic) [Example 28, (±)-2-[N-[2-(9H-Carbazol-2-yloxy)ethyl]amino]-1-(2-fluorophenyl)ethanol Hydrochloride], the EC50 worked out at 1 µM and the Emax came out at 97%.
For `Oc1ccc(C(O)CNCCOc2ccc3c(c2)[nH]c2ccccc23)cc1` (racemic) [Example 29, (±)-2-[N-[2-(9H-Carbazol-2-yloxy)ethyl]amino]-1-(4-hydroxyphenyl)ethanol Hydrochloride], in that order: 0.25 µM and 120%.
As for `OC(CNCCOc1ccc2oc3ccccc3c2c1)c1ccccc1` (racemic) [Example 34, (±)-2-[N-[2-(Dibenzofuran-2-yloxy)ethyl]amino]-1-phenyl ethanol Hydrochloride], the EC50 is 4.6 µM and the Emax amounted to 37%.
Consider `CC(=O)Nc1ccc2c(c1)Cc1cc(OCCNCC(O)c3ccc(O)c(NS(=O)(=O)N(C)C)c3)ccc1-2` (racemic) [Example 45, (±)-N′-[5-[2-[2-(9H-7-Acetylaminofluoren-2-yloxy)ethylamino]-1-hydroxyethyl]-2-hydroxyphenyl]-N,N-dimethylsulfamide Hydrochloride], for which the Emax is 89%. Besides, the EC50 under setting [1] was found to be 0.017 µM.
Regarding `Nc1cccc(C(O)CNCCOc2ccc3c(c2)[nH]c2ccccc23)c1` (racemic) [Example 47, (±)2-[N-[2-(9H-Carbazol-2-yloxy)ethyl]amino]-1-(3-aminophenyl)]ethanol Hydrochloride], the Emax was 86%. The EC50 under setting [1] worked out at 2 µM.
As to `CN(C)S(=O)(=O)Nc1cccc(C(O)CNCCOc2ccc3c(c2)[nH]c2ccccc23)c1` (racemic) [Example 48, (±)-N′-[3-[2-[2-(9H-Carbazol-2-yloxy)ethylamino]-1-hydroxyethyl]phenyl]-N,N-dimethylsulfamide Hydrochloride], the EC50 worked out at 0.22 µM and the Emax was found to be 73%.
As to `CS(=O)(=O)Nc1cc(C(O)CNCCOc2ccc3c(c2)oc2ccccc23)ccc1F` (racemic) [Example 55, (±)-N-[5-[2-[2-(Dibenzofuran-3-yloxy)ethylamino]-1-hydroxyethyl]2-fluorophenyl]methanesulfonamide Hydrochloride], the EC50 turned out to be 0.23 µM and the Emax was determined as 76%.
Consider `CS(=O)(=O)Nc1cc(C(O)CNCCOc2ccc3c(c2)sc2ccccc23)ccc1F` (racemic) [Example 56, (±)-N-[5-[2-[2-(Dibenzothiophen-3-yloxy)ethylamino]-1-hydroxyethyl]-2-fluorophenyl]methanesulfonamide Hydrochloride], for which the EC50 is 0.63 µM and the Emax stood at 97%.
With `CS(=O)(=O)Nc1cc(C(O)CNCCOc2ccc3c(c2)oc2ccccc23)ccc1Cl` (racemic) [Example 57, (±)-N-[5-[2-[2-(Dibenzofuran-3-yloxy)ethylamino]-1-hydroxyethyl]-2-chlorophenyl]methanesulfonamide Hydrochloride], the EC50 is 0.23 µM and the Emax was determined as 68%.
As for `CS(=O)(=O)Nc1cc(C(O)CNCCOc2ccc3c(c2)sc2ccccc23)ccc1Cl` (racemic) [Example 58, (±)-N-[5-[2-[2-(Dibenzothiophen-3-yloxy)ethylamino]-1-hydroxyethyl]-2-chlorophenyl]methanesulfonamide Hydrochloride], the EC50 was determined as 0.55 µM and the Emax came to 91%.
Taken in the same sequence, the figures for `CS(=O)(=O)Nc1cc(O)cc(C(O)CNCCOc2ccc3c(c2)[nH]c2ccccc23)c1` (racemic) [Example 62, (±)-N-[5-[2-[2-(9H-Carbazol-2-yloxy)ethylamino]-1-hydroxyethyl]-3-hydroxyphenyl]methanesulfonamide Hydrochloride] were 0.21 µM and 106%.
As to `CNS(=O)(=O)c1cc(C(O)CNCCOc2ccc3c(c2)[nH]c2ccccc23)ccc1O` (racemic) [Example 66, (±)-N-methyl-[5-[2-[2-(9H-Carbazol-2-yloxy)ethylamino]-1-hydroxyethyl]-2-hydroxy]benzenesulfonamide Hydrochloride], the Emax stood at 106%. Also, under setting [1], the EC50 is 0.072 µM.
In the case of `CC(=O)Nc1ccc2[nH]c3cc(OCCNCC(O)c4cccc(NS(C)(=O)=O)c4)ccc3c2c1.Cl` (racemic) [Example 68, (±)-N-[3-[2-[2-(9H-6-(Acetylamino)carbazol-2-yloxy]ethylamino]-1-hydroxyethyl]phenyl]methanesulfonamide Hydrochloride], under setting [1], the EC50 was 0.038 µM. Further, the “Intrinsic activity (%)” value (relative activity for isoproterenol, cAMP, CHO cells with human β3) turned out to be 92%.
For the molecule `CS(=O)(=O)Nc1cc(C(O)CNCCOc2ccc3c(c2)[nH]c2ccccc23)ccc1N` (racemic) [Example 82, (±)-N-[5-[2-[2-(9H-Carbazol-2-yloxy)ethylamino]-1-hydroxyethyl]-2-aminophenyl]methanesulfonamide Hydrochloride], the EC50 is 2.8 µM and the Emax came out at 130%.
Turning to `CN(Cc1ccccc1)S(=O)(=O)c1cc(C(O)CNCCOc2ccc3c(c2)[nH]c2ccccc23)ccc1O` (racemic) [Example 83, (±)-N-Methyl-N-benzyl-[5-[2-[2-(9H-carbazol-2-yloxy)ethylamino]-1-hydroxyethyl]-2-hydroxy]benzenesulfonamide Hydrochloride], the Emax turned out to be 79%. Also, the EC50 under setting [1] stood at 0.74 µM.
With `CS(=O)(=O)Nc1cc(C(O)CNCCOc2ccc3c(c2)[nH]c2ccccc23)ccc1CO` (racemic) [Example 84, (±)-N-[5-[2-[2-(9H-Carbazol-2-yloxy)ethylamino]-1-hydroxyethyl]-2-(hydroxymethyl)phenyl]methanesulfonamide], the Emax stood at 71%. Moreover, under setting [1], the EC50 came to 0.058 µM.
In the case of `CS(=O)(=O)Nc1cc(C(O)CNCCOc2ccc3c(c2)[nH]c2ccccc23)ccc1Br` (racemic) [Example 85, (±)-N-[5-[2-[2-(9H-Carbazol-2-yloxy)ethylamino]-1-hydroxyethyl]-2-bromophenyl]methanesulfonamide], the Emax stood at 70%. The EC50 under setting [1] amounted to 0.056 µM.
